Data taken from patent US12644001B2, “Fluorenyl cyanine dyes” (Biotium, Inc., priority 2020, dated 2026).

Assay: Fluorescence properties (excitation and emission wavelength) of exemplary compounds
Type: physicochemical
Conditions: for λ^em (nm): emission wavelength; for λ^ex (nm): excitation wavelength
Text: Exemplary compounds of the invention along with their known fluorescence properties are shown in Table 2 where λ^ex denotes excitation wavelength and λ^em denotes emission wavelength: […]

SMILES | λ^em (nm) | λ^ex (nm)
CCCOCCOCCOCCOCCOCCONC(=O)CCC1(CCC(=O)NOCCOCCOCCOCCOCCOCCC)c2cc3c(cc2-c2c1cc(S(=O)(=O)O)cc2S(=O)(=O)[O-])C(C)(C)C(/C=C/C1=C(Oc2ccc(S(=O)(=O)O)cc2)C(=C/C=C2/N(CCCCCC(=O)ON4C(=O)CCC4=O)c4cc5c(cc4C2(C)C)-c2c(cc(S(=O)(=O)O)cc2S(=O)(=O)O)C5(CCC(=O)NCCOCCOCCOCCOCCOCCOC)CCC(=O)NCCOCCOCCOCCOCCOCCOC)/CCC1)=[N+]3CCCCCC(=O)ON1C(=O)CCC1=O [Compound E17] | 832 | 823
CC1(CCCCCC(=O)O)C(/C=C/C=C2\N(CCCS(=O)(=O)O)c3ccc(S(=O)(=O)[O-])cc3C2(C)C)=[N+](CCCS(=O)(=O)O)c2cc3c(cc21)-c1ccc(S(=O)(=O)O)cc1C3(C)C (stereo not drawn) [Compound E2] | 602 | 572
CC1(C)C(/C=C/C=C/C=C/C=C2\N(CCCCCC(=O)ON3C(=O)CCC3=O)c3cc4c(cc3C2(C)C)-c2ccc(S(=O)(=O)O)cc2C42CCCCC2)=[N+](CCCS(=O)(=O)O)c2cc3c(cc21)-c1ccc(S(=O)(=O)[O-])cc1C31CCCCC1 [Compound E7] | 817 | 793
CC1(C)c2cc(S(=O)(=O)O)ccc2-c2cc3c(cc21)N(CCCCCC(=O)ON1C(=O)CCC1=O)\C(=C/C=C/C=C/C=C/C1=[N+](CCCS(=O)(=O)O)c2cc4c(cc2C12CCCCC2)-c1ccc(S(=O)(=O)[O-])cc1C4(C)C)C31CCCCC1 [Compound E6] | 820 | 795
CCCOCCOCCOCCOCCOCCONC(=O)CCC1(CCC(=O)NCCOCCOCCOCCOCCOCCOC)c2cc3c(cc2-c2c1cc(S(=O)(=O)O)cc2S(=O)(=O)[O-])C(C)(C)C(/C=C/C=C/C=C1/N(CCCCCC(=O)ON2C(=O)CCC2=O)c2cc4c(cc2C1(C)C)-c1c(cc(S(=O)(=O)O)cc1S(=O)(=O)O)C4(CCC(=O)NCCOCCOCCOCCOCCOCCOC)CCC(=O)NOCCOCCOCCOCCOCCOCCC)=[N+]3CCCCCC(=O)ON1C(=O)CCC1=O (stereo not drawn) [Compound E15] | 721 | 696
CC1(C)C2=CC3=[N+](CCN2c2ccccc21)c1cc2c(cc1C3(C)CCCCCC(=O)O)-c1ccccc1C2(C)C.[I-] (stereo not drawn) [Compound E1] | 518 | 445
CC1(C)C(/C=C/C=C/C=C2\N(CCCCCC(=O)ON3C(=O)CCC3=O)c3cc4c(cc3C2(C)C)-c2c(cc(S(=O)(=O)O)cc2S(=O)(=O)O)C4(C)C)=[N+](CCCCCC(=O)ON2C(=O)CCC2=O)c2cc3c(cc21)-c1c(cc(S(=O)(=O)O)cc1S(=O)(=O)[O-])C3(C)C [Compound E19] | 720 | 686
CCCOCCOCCOCCOCCOCCOCCOCCOCCOCCOCCONC(=O)CCC1(CCC(=O)NOCCOCCOCCOCCOCCOCCOCCOCCOCCOCCOCCC)c2cc(S(=O)(=O)[O-])ccc2-c2cc3c(cc21)[N+](CCCCCC(=O)ON1C(=O)CCC1=O)=C(/C=C/C1=C(Oc2ccc(S(=O)(=O)O)cc2)C(=C/C=C2/N(CCCCCC(=O)ON4C(=O)CCC4=O)c4cc5c(cc4C2(C)C)-c2ccc(S(=O)(=O)O)cc2C5(CCC(=O)NCCOCCOCCOCCOCCOCCOCCOCCOCCOCCOCCOC)CCC(=O)NCCOCCOCCOCCOCCOCCOCCOCCOCCOCCOCCOC)/CCC1)C3(C)C [Compound E16] | 832 | 823
CCCOCCOCCOCCOCCOCCOCCOCCOCCOCCOCCONC(=O)CCC1(CCC(=O)NCCOCCOCCOCCOCCOCCOCCOCCOCCOCCOCCOC)c2cc(S(=O)(=O)O)ccc2-c2cc3c(cc21)N(CCCCCC(=O)ON1C(=O)CCC1=O)/C(=C/C=C/C=C/C1=[N+](CCCCCC(=O)ON2C(=O)CCC2=O)c2cc4c(cc2C1(C)C)-c1ccc(S(=O)(=O)[O-])cc1C4(CCC(=O)NCCOCCOCCOCCOCCOCCOCCOCCOCCOCCOCCOC)CCC(=O)NOCCOCCOCCOCCOCCOCCOCCOCCOCCOCCOCCC)C3(C)C (stereo not drawn) [Compound E14] | 721 | 696
